In ChEMBL document CHEMBL1151285, “Dammarane triterpenes from the hypocotyls and fruits of Ceriops tagal” (J Nat Prod, 2005):
Values after ≈ are worked out from the molar mass of the structure shown.

Experiments:
Assay type in all cases: functional, cell-based
[1] = test system: KB; assay: Cytotoxicity against human KB cells by colorimetric assay
[2] = Cytotoxicity against human BC cells by colorimetric assay
[3] = test system: NCI-H187; assay: Cytotoxicity against human NCI-H187 cells by colorimetric assay

SMILES | IC50 [1] | IC50 [2] | IC50 [3]
C=C(C)[C@@H]1CC[C@]2(C(=O)O)CC[C@]3(C)[C@H](CC[C@@H]4[C@@]5(C)CC[C@H](OC(=O)/C=C/c6ccc(O)c(OC)c6)C(C)(C)[C@@H]5CC[C@]43C)[C@@H]12 | 3.8 µg/mL (≈ 6 µM) | 3 µg/mL (≈ 4.74 µM) | 1.8 µg/mL (≈ 2.84 µM)
Cc1c2ccncc2c(C)c2c1[nH]c1ccccc12 [ELLIPTECINE] | 0.3 µg/mL (≈ 1.22 µM) | 0.3 µg/mL (≈ 1.22 µM) | 0.3 µg/mL (≈ 1.22 µM)
